Source: PMC11188489, “Pharmacokinetic assessment of tacrolimus in combination with deoxyschizandrin in rats” (Frontiers in Pharmacology, 2024)

What was measured:
[1] = Pharmacokinetics of Tac in rats alone or co-administered with deoxyschizandrin or Wuzhi capsule (UHPLC-MS/MS of plasma); type: in vivo, SD rats; details: for AUMC0→t / AUC(0-inf) / AUC(0-t) / Cmax / MRT / Tmax / half-life: rat plasma; for AUC(0-inf) / AUC(0-t) / Cmax / MRT / Tmax / half-life: male, SD, rat, plasma
Experimental: The mobile phase A was acetonitrile, and mobile phase B was 0.1% formic acid in water, and the initial mobile phase of gradient elution program was consisted of 60% phase A and 40% phase B. The sample injection volume was set at 10 μL. Gradient elution program was supplied in Supplementary Table S1.
The mass spectrometry detection was achieved on an Agilent 6460A mass spectrometer with ESI source. […] The settings of the mass spectrometer source were as follows: capillary voltage 4,000 V, sheath gas flow 12 L/min, temperature 400°C, dry gas (nitrogen) flow 10 L/min and temperature 350°C, nebulizer pressure 45 psi. All analytes were detected in positive ionization mode. Collision gas (high purity liquid nitrogen) was set at 0.25 MPa. The structures of both two analytes and IS are display in Figure 1.
The pretreatment was performed for the plasma sample by one-step protein precipitation, Briefly, 100 μL sample was transferred into a 1.5 mL EP tube prior to adding with 300 μL methanol(containing 200 ng/mL IS). The mixture was vortex-mixed for 30 s before centrifugation at 17,400 g for 10 min at room temperature, and 100 μL of the supernatant was diluted with 100 μL of acetonitrile (v/v, 1:1) Then, a 10 μL aliquoted of diluted solution was injected into the UHPLC-MS/MS system for analysis.
The protocol of the animal study was approved by the Experimental Animal Ethics Committee of the Shanghai University of Traditional Chinese Medicine. Specific Pathogen Free (SPF) grade SD rats, male, 8 weeks old, 200–250 g, were obtained from the animal experiment center of Shanghai University of Traditional Chinese Medicine. After passing quarantine, the rats were adaptive fed for 2 days. Rats were fasted for 12–14 h, followed by the initiation of pharmacokinetic study of Tac and deoxyschizandrin. This animal study was carried out in accordance with the National Institutes of Health Guide for the Care and Use of Laboratory animals.
In this study, 42 rats were divided equally into seven groups of six rats each, numbered NG2201-NG2207. Among them, the NG2201 and NG2202 group was dosed with 150 mg/kg deoxyschizandrin alone to study the PK of deoxyschizandrin in rats after single and multiple doses; the NG2203 group was administrate dosed with 1.0 mg/kg of Tac; the NG2204-NG2206 groups were dosed with 75, 150, and 300 mg/kg of deoxyschizandrin plus 1.0 mg/kg Tac, respectively, and the NG2207 group was dosed with the Wuzhi capsule (approximately equal to 150 mg/kg of deoxyschizandrin) plus 1.0 mg/kg of Tac ([Teng et al., 2022]). The detailed dosing regimen is shown in Table 2, and all dose in this experiment were calculated according to clinical dose. Blood samples (approximately 300 μL for each) for PK analysis were collected into lithium–heparin tubes. The plasma sampling schedules are outlined below: Blood samples were drawn pre-dose, at 5, 10, 20 and 30 min, and at 1, 1.5, 2, 4, 8 and 24 h after drug administration. The blood samples were centrifuged at 5,000 g for 15 min at 4°C to collect plasma samples, which were placed −80 refrigerator.
The rat plasma collected from each group was pretreated according to the method in section 2.5, and exposure levels of Tac and deoxyschizandrin were determined using the above established UHPLC-MS/MS method and the PKs were calculated using DAS software using non-compartment model (version 2.0, China Pharmacological Society). The data were presented as mean ± SD.

[2] = design: method as in Abushammala, 2021; details: ref Abushammala, 2021; cited from earlier work
[3] = Stability of the two analytes in rat plasma under different storage conditions; type: in vitro ADME; details: n=5
Experimental: To prepare the stock solution, approximately 2.00 mg of Tac, deoxyschizandrin and IS were accurately weighed and dissolved in methanol, respectively. The stock solutions of Tac and deoxyschizandrin with a final concentration of 1.00 mg/mL was obtained, and the IS stock solution was diluted to 100.00 ng/mL using methanol before use. The stock solutions were aliquoted and stored at −80°C. Combined working solutions were prepared by diluting the stock solution using 10% aqueous methanol at the following concentrations: 5.00, 10.00, 20.00, 50.00, 100.00, 200.00, 500.00, 1,000.00, and 2,000.00 ng/mL. Blank rat plasma was used to prepare the calibration standards. Quality-control (QC) samples of two analytes were prepared separately in the same manner at three concentrations, namely, 10 (low concentration), 100 (middle), 1,000 ng/mL (high), and all QC samples were stored at −80°C.
The methodology validation was completed according to FDA guidelines and Chinese Pharmacopoeia (2015 edition), and the linearity, inter- and intra-precision and accuracy, matrix effect and extraction recovery, stability and specificity of this method were validated according to previous study ([Lu et al., 2022]; [Wang et al., 2022]; [Shu et al., 2016]).

[4] = 1 mg/kg, NG2203: 1.0 mg/kg of Tac alone
[5] = 1 mg/kg, NG2204: 1.0 mg/kg of Tac plus 75 mg/kg deoxyschizandrin
[6] = 1 mg/kg, NG2205: 1.0 mg/kg of Tac plus 150 mg/kg deoxyschizandrin
[7] = 1 mg/kg, NG2206: 1.0 mg/kg of Tac plus 300 mg/kg deoxyschizandrin
[8] = 1 mg/kg, NG2207: 1.0 mg/kg of Tac plus Wuzhi capsule (equivalent to 150 mg/kg deoxyschizandrin)
[9] = 1 mg/kg, Tac 1 mg/kg alone (NG2203)
[10] = 1.0 mg/kg of Tac plus Wuzhi capsule (equivalent to 150 mg/kg deoxyschizandrin)

increase of C max of Tac after co-administered deoxyschizandrin ([1]; 75, 150, 300 mg/kg deoxyschizandrin plus 1 mg/kg Tac vs Tac alone, rats): 3-4 fold
AUMC0→t ([1]; NG2203: 1.0 mg/kg of Tac alone): 613.05 ± 182.15 ng. h2/mL
AUMC0→t ([1]; NG2204: 1.0 mg/kg of Tac plus 75 mg/kg deoxyschizandrin): 2107.22 ± 701.25 ng. h2/mL
AUMC0→t ([1]; NG2205: 1.0 mg/kg of Tac plus 150 mg/kg deoxyschizandrin): 1915.12 ± 621.91 ng. h2/mL
AUMC0→t ([1]; NG2206: 1.0 mg/kg of Tac plus 300 mg/kg deoxyschizandrin): 3,315.05 ± 1,100.65 ng. h2/mL
AUMC0→t ([1]; NG2207: 1.0 mg/kg of Tac plus Wuzhi capsule (equivalent to 150 mg/kg deoxyschizandrin)): 2395.69 ± 1,225.18 ng. h2/mL
mean C max lower with Wuzhi capsule compared with deoxyschizandrin ([1]; Tac 1.0 mg/kg plus Wuzhi capsule vs plus 150 mg/kg deoxyschizandrin, rats): 11.23 ng/mL
AUC(0-inf) [1, 4]: 105 ± 31.3 ng·h/mL
AUC(0-t) [1, 4]: 95.1 ± 32.6 ng·h/mL
Cmax [1, 4]: 14.3 ± 4.73 ng/mL
MRT [1, 4]: 6.54 ± 0.55 h
Tmax [1, 4]: 1.33 ± 0.52 h
half-life [1, 4]: 7.3 ± 3.06 h
AUC(0-inf) [1, 5]: 351 ± 117 ng·h/mL
AUC(0-t) [1, 5]: 314 ± 99.4 ng·h/mL
Cmax [1, 5]: 43.2 ± 13.7 ng/mL
MRT [1, 5]: 6.69 ± 0.25 h
Tmax [1, 5]: 1.17 ± 0.41 h
half-life [1, 5]: 7.31 ± 1.04 h
AUC(0-inf) [1, 6]: 331 ± 98 ng·h/mL
AUC(0-t) [1, 6]: 315 ± 92.2 ng·h/mL
Cmax [1, 6]: 54.5 ± 14.4 ng/mL
MRT [1, 6]: 6.02 ± 0.53 h
Tmax [1, 6]: 1.08 ± 0.49 h
half-life [1, 6]: 5.04 ± 1.95 h
AUC(0-inf) [1, 7]: 534 ± 176 ng·h/mL
AUC(0-t) [1, 7]: 486 ± 149 ng·h/mL
Cmax [1, 7]: 67.4 ± 18.6 ng/mL
MRT [1, 7]: 6.76 ± 0.31 h
Tmax [1, 7]: 0.75 ± 0.27 h
half-life [1, 7]: 6.59 ± 1.62 h
AUC(0-inf) [1, 8]: 388 ± 217 ng·h/mL
AUC(0-t) [1, 8]: 340 ± 193 ng·h/mL
Cmax [1, 8]: 43.2 ± 21.9 ng/mL
MRT [1, 8]: 7.23 ± 1.04 h
Tmax [1, 8]: 1.5 ± 0.55 h
half-life [1, 8]: 8.27 ± 2.2 h
AUC(0-inf) [1, 9]: 105 ± 31.3 ng·h/mL
AUC(0-t) [1, 9]: 95.1 ± 32.6 ng·h/mL
AUC(0-t) ([1]; 1 mg/kg, Tac alone (NG2203)): 95.1 ± 32.6 ng·h/mL
AUC(0-inf) [1, 10]: 388 ± 217 ng·h/mL
AUC(0-t) [1, 10]: 340 ± 193 ng·h/mL
AUC(0-t) ([1]; Tac after co-administration of deoxyschizandrin (NG2205)): 315 ± 92.2 ng·h/mL
AUC(0-t) ([1]; Tac co-administrated with deoxyschizandrin (NG2205)): 315 ± 92.2 ng·h/mL
Auto-sampler stability (24h, 4℃) Mean ± SD ([3]; Nominal Conc. 10 ng/mL): 10.23±0.51
Bench-top stability (8h, RT) Mean ± SD ([3]; Nominal Conc. 10 ng/mL): 10.39±0.41
Frozen-thaw stability (3 times) Mean ± SD ([3]; Nominal Conc. 10 ng/mL): 10.55±0.54
Long-term stability (1 month, -80℃) Mean ± SD ([3]; Nominal Conc. 10 ng/mL): 10.35±0.14
Auto-sampler stability (24h, 4℃) Mean ± SD ([3]; Nominal Conc. 100 ng/mL): 103.90±2.74
Bench-top stability (8h, RT) Mean ± SD ([3]; Nominal Conc. 100 ng/mL): 102.33±1.53
Frozen-thaw stability (3 times) Mean ± SD ([3]; Nominal Conc. 100 ng/mL): 110.23±5.21
Long-term stability (1 month, -80℃) Mean ± SD ([3]; Nominal Conc. 100 ng/mL): 101.09±1.01
Auto-sampler stability (24h, 4℃) Mean ± SD ([3]; Nominal Conc. 1000 ng/mL): 1010.05±13.85
Bench-top stability (8h, RT) Mean ± SD ([3]; Nominal Conc. 1000 ng/mL): 1009.93±11.80
Frozen-thaw stability (3 times) Mean ± SD ([3]; Nominal Conc. 1000 ng/mL): 1025.45±12.50
Long-term stability (1 month, -80℃) Mean ± SD ([3]; Nominal Conc. 1000 ng/mL): 1008.72±11.30
Structure (SMILES): C=CC[C@@H]1/C=C(\C)C[C@H](C)C[C@H](OC)[C@H]2O[C@@](O)(C(=O)C(=O)N3CCCC[C@H]3C(=O)O[C@H](/C(C)=C/[C@@H]3CC[C@@H](O)[C@H](OC)C3)[C@H](C)[C@@H](O)CC1=O)[C@H](C)C[C@@H]2OC [Tac, Tacrolimus]
average bioavailability [2]: 25%
